Measurements: the NIST ThermoML archive (doi:10.1021/je060271a)

Conditions: 323.16 K, Liquid, Vibrating tube method

CCCCCC(=O)OCC(COC(=O)CCCCC)(COC(=O)CCCCC)COC(=O)CCCCC [pentaerythritol tetrahexanoate]
Conditions	mass density [kg/m3]
24638 kPa	989
24665 kPa	988.9
24693 kPa	988.9
24716 kPa	988.9
24744 kPa	989
24772 kPa	989
24795 kPa	988.9
24822 kPa	989
24849 kPa	989
24876 kPa	989.1
24905 kPa	989
24928 kPa	989.2
24956 kPa	989.1
24984 kPa	989.2
25012 kPa	989.1
25040 kPa	989.2
25063 kPa	989.1
25092 kPa	989.2
25120 kPa	989.4
25148 kPa	989.3
25172 kPa	989.1
25200 kPa	989.2
25228 kPa	989.4
25257 kPa	989.3
25286 kPa	989.2
25314 kPa	989.3
25339 kPa	989.4
25368 kPa	989.4
25397 kPa	989.3
25422 kPa	989.4
25450 kPa	989.4
25480 kPa	989.3
25509 kPa	989.4
26056 kPa	989.7
26083 kPa	989.7
26111 kPa	989.8
26138 kPa	989.8
26161 kPa	989.8
26189 kPa	989.8
26217 kPa	989.8
26244 kPa	989.9
26266 kPa	989.9
26294 kPa	989.9
26321 kPa	989.9
26349 kPa	989.9
26377 kPa	989.9
26405 kPa	990
26428 kPa	990
26456 kPa	990
26485 kPa	990
26516 kPa	990
26539 kPa	990.1
26567 kPa	990.1
26596 kPa	990.2
26620 kPa	990.1
26648 kPa	990.1
26677 kPa	990.1
26706 kPa	990.2
26734 kPa	990.2
27187 kPa	990.3
27218 kPa	990.5
27243 kPa	990.5
27273 kPa	990.4
27304 kPa	990.6
27334 kPa	990.6
27359 kPa	990.6
27390 kPa	990.6
27420 kPa	990.5
27451 kPa	990.6
27481 kPa	990.7
27507 kPa	990.6
27538 kPa	990.7
27569 kPa	990.7
27601 kPa	990.7
27627 kPa	990.7
27659 kPa	990.8
27690 kPa	990.8
27722 kPa	990.8
27748 kPa	990.8
27781 kPa	990.7
27814 kPa	990.9
27846 kPa	990.8
27871 kPa	990.8
27898 kPa	991
27926 kPa	990.9
27954 kPa	990.9
27978 kPa	991
28006 kPa	990.8
28034 kPa	990.9
28308 kPa	991.1
28332 kPa	991.2
28361 kPa	991.2
28389 kPa	991.2
28418 kPa	991.2
28471 kPa	991.3
28499 kPa	991.1
28529 kPa	991.2
28553 kPa	991.1
28582 kPa	991.2
28611 kPa	991.3
28640 kPa	991.4
29189 kPa	991.7
29221 kPa	991.7
29253 kPa	991.7
29279 kPa	991.7
29311 kPa	991.8
29343 kPa	991.8
29373 kPa	991.8
29395 kPa	991.8
29423 kPa	991.8
29446 kPa	991.7
29473 kPa	991.8
29500 kPa	991.8
29527 kPa	991.9
29603 kPa	991.9
29630 kPa	991.8
29657 kPa	992.1
29680 kPa	992
29707 kPa	992
29734 kPa	992
29999 kPa	992.1
30027 kPa	992.1
30055 kPa	992.3
30079 kPa	992.1
30107 kPa	992.1
30135 kPa	992.2
30159 kPa	992.4
30188 kPa	992.3
30217 kPa	992.3
30245 kPa	992.2
30273 kPa	992.4
30301 kPa	992.4
30326 kPa	992.2
30354 kPa	992.4
30383 kPa	992.3
30407 kPa	992.4
30436 kPa	992.4
30579 kPa	992.4
30610 kPa	992.4
30641 kPa	992.5
30672 kPa	992.6
30697 kPa	992.5
30725 kPa	992.6
30749 kPa	992.7
30774 kPa	992.6
